Results published in DBAASP.
In brackets after ≈: the same amount, converted by molar mass. Values belong to the compound of their own block, whether it stands above or below them.

Experiments:
Assay in all cases: ≥ marks a high value that may be exact or a test limit, other limits are often not marked, values filed in µg/mL are converted to µM
[1] = test system: Candida albicans NCYC 1467
[2] = test system: Enterococcus faecalis NCTC 12697
[3] = test system: Escherichia coli NCTC 10418
[4] = test system: Klebsiella pneumoniae ATCC 43816
[5] = test system: Pseudomonas aeruginosa ATCC 27853
[6] = test system: Staphylococcus aureus ATCC 12493
[7] = test system: Staphylococcus aureus NCTC 10788
Staphylococcus aureus = test system: Staphylococcus aureus
[8] = test system: Acinetobacter baumannii ATCC 19606
Acinetobacter junii RT-4 = test system: Acinetobacter junii RT-4
Bacillus megaterium Bm11 = test system: Bacillus megaterium Bm11
[9] = test system: Candida albicans ATCC 10231
[10] = test system: Enterococcus faecalis ATCC 29212
[11] = test system: Escherichia coli ATCC 25922
Escherichia coli D21 = test system: Escherichia coli D21
[12] = test system: Pseudomonas aeruginosa ATCC 15692
[13] = test system: Pseudomonas syringae pv. tabaci 1918NCPPB
Saccharomyces cerevisiae = test system: Saccharomyces cerevisiae
[14] = test system: Schizosaccharomyces pombe
[15] = test system: Staphylococcus aureus ATCC 25923
[16] = test system: Staphylococcus aureus Cowan 1
Staphylococcus capitis 1 = test system: Staphylococcus capitis 1
[17] = test system: Staphylococcus epidermidis ATCC 12228
[18] = test system: Streptococcus pyogenes ATCC 21547
[19] = test system: Yersinia pseudotuberculosis YPIII
[20] = test system: Bacillus subtilis ATCC 9372
[21] = test system: Escherichia coli ATCC 8739
[22] = test system: Proteus vulgaris NCTC 4635
[23] = test system: Pseudomonas aeruginosa ATCC 9027
[24] = test system: Staphylococcus aureus ATCC 6538
[25] = test system: Corynebacterium xerosis C875
Escherichia coli DC2 = test system: Escherichia coli DC2
Escherichia coli UB1005 = test system: Escherichia coli UB1005
[26] = test system: Staphylococcus epidermidis C621
[27] = test system: Bacillus subtilis ATCC 6633
[28] = test system: Klebsiella pneumoniae ATCC 10031
[29] = test system: Micrococcus luteus ATCC 10240
[30] = test system: Salmonella enterica subsp. enterica serovar Typhimurium ATCC 14028
[31] = test system: Shigella dysenteriae ATCC 9752
[32] = test system: Staphylococcus aureus ATCC 6538P
[33] = test system: Staphylococcus aureus TK784

MIC [1]: 2 µM (≈ 3.93 µg/mL)
MIC [2]: ≥ 256 µM
MIC [3]: 2 µM (≈ 3.93 µg/mL)
MIC [4]: ≥ 32 µM
MIC [5]: 4 µM (≈ 7.87 µg/mL)
MIC [6]: 8 µM (≈ 15.7 µg/mL)
MIC [7]: 2 µM (≈ 3.93 µg/mL)
MIC (Staphylococcus aureus): 11.3 µM (≈ 22.2 µg/mL)
SMILES: CC[C@H](C)[C@H](NC(=O)[C@H](CO)NC(=O)[C@H](CCCCN)NC(=O)[C@H](Cc1c[nH]c2ccccc12)NC(=O)[C@H](CC(C)C)NC(=O)[C@H](C)N)C(=O)N[C@@H](CC(C)C)C(=O)N[C@@H](CCCCN)C(=O)N[C@@H](CC(N)=O)C(=O)N[C@H](C(=O)NCC(=O)N[C@@H](CCCCN)C(=O)N[C@@H](C)C(=O)N[C@@H](C)C(=O)NCC(=O)N[C@@H](CCCCN)C(=O)N[C@@H](C)C(=O)N[C@H](C(=O)N[C@@H](CC(C)C)C(N)=O)C(C)C)C(C)C [ALWKSILKNVGKAAGKAVL]

MIC [8]: 48 µM (≈ 79.2 µg/mL)
MIC (Acinetobacter junii RT-4): 12 µM (≈ 19.8 µg/mL)
MIC (Bacillus megaterium Bm11): 3 µM (≈ 4.95 µg/mL)
MIC [9]: 12 µM (≈ 19.8 µg/mL)
MIC [10]: 48 µM (≈ 79.2 µg/mL)
MIC [11]: 48 µM (≈ 79.2 µg/mL)
MIC (Escherichia coli D21): 24 µM (≈ 39.6 µg/mL)
MIC [12]: ≥ 48 µM
MIC [5]: > 48 µM
MIC [13]: 24 µM (≈ 39.6 µg/mL)
MIC (Saccharomyces cerevisiae): 12 µM (≈ 19.8 µg/mL)
MIC [14]: 12 µM (≈ 19.8 µg/mL)
MIC [15]: 24 µM (≈ 39.6 µg/mL)
MIC [16]: 24 µM (≈ 39.6 µg/mL)
MIC (Staphylococcus capitis 1): 12 µM (≈ 19.8 µg/mL)
MIC [17]: 12 µM (≈ 19.8 µg/mL)
MIC [18]: 12 µM (≈ 19.8 µg/mL)
MIC [19]: 24 µM (≈ 39.6 µg/mL)
SMILES: CC[C@H](C)[C@H](NC(=O)[C@H](CCCN=C(N)N)NC(=O)[C@@H]1CCCN1C(=O)[C@H](CC(C)C)NC(=O)[C@H](Cc1ccccc1)NC(=O)[C@H](CCCCN)NC(=O)[C@H](CO)NC(=O)[C@H](Cc1ccccc1)NC(=O)[C@H](Cc1c[nH]c2ccccc12)NC(=O)[C@@H]1CCCN1C(=O)[C@@H](NC(=O)[C@@H](N)Cc1ccccc1)C(C)C)C(=O)N[C@@H](CC(C)C)C(N)=O [FVPWFSKFLPRIL]

MIC [20]: ≥ 351 µM
MIC [21]: ≥ 351 µM
MIC [22]: ≥ 351 µM
MIC [23]: 351 µM (≈ 512 µg/mL)
MIC [24]: > 351 µM
SMILES: CC[C@H](C)[C@H](NC(=O)[C@@H](NC(=O)[C@H](CO)NC(=O)[C@H](C)NC(=O)[C@@H](NC(=O)[C@H](CCCCN)NC(=O)[C@H](CCCCN)NC(=O)[C@@H](NC(=O)[C@@H](NC(=O)[C@H](C)NC(=O)[C@H](Cc1ccccc1)NC(=O)[C@H](CC(C)C)NC(=O)CN)C(C)C)[C@@H](C)CC)C(C)C)C(C)C)C(=O)NCC(=O)NCC(=O)O [GLFAVIKKVASVIGG]

MIC [20]: ≥ 435 µM
MIC [21]: ≥ 870 µM
MIC [22]: ≥ 870 µM
MIC [23]: 870 µM (≈ 1020 µg/mL)
MIC [24]: > 870 µM
SMILES: CC[C@H](C)[C@H](NC(=O)[C@@H](NC(=O)[C@H](CC(=O)O)NC(=O)[C@H](Cc1ccccc1)NC(=O)[C@H](CC(C)C)NC(=O)CN)C(C)C)C(=O)N[C@@H](CCCCN)C(=O)N[C@@H](CCCCN)C(=O)N[C@H](C(=O)N[C@@H](C)C(=O)N[C@@H](CO)C(=O)O)C(C)C [GLFDVIKKVAS]

MIC [25]: 16 µM (≈ 38.8 µg/mL)
MIC (Escherichia coli DC2): ≥ 64 µM
MIC (Escherichia coli UB1005): ≥ 64 µM
MIC [26]: ≥ 64 µM
SMILES: C[C@H](NC(=O)[C@H](C)NC(=O)[C@H](C)NC(=O)[C@H](CCCCN)NC(=O)[C@H](C)NC(=O)[C@H](C)NC(=O)[C@H](C)NC(=O)[C@H](CCCCN)NC(=O)[C@@H](N)CCCCN)C(=O)N[C@@H](C)C(=O)N[C@@H](C)C(=O)N[C@@H](CCCCN)C(=O)N[C@@H](C)C(=O)N[C@@H](C)C(=O)N[C@@H](Cc1c[nH]c2ccccc12)C(=O)N[C@@H](C)C(=O)N[C@@H](C)C(=O)N[C@@H](CCCCN)C(=O)N[C@@H](C)C(=O)N[C@@H](C)C(=O)N[C@@H](C)C(=O)N[C@@H](CCCCN)C(=O)N[C@@H](CCCCN)C(=O)N[C@@H](CCCCN)C(=O)N[C@@H](CCCCN)C(N)=O [KKAAAKAAAAAKAAWAAKAAAKKKK]

MIC [25]: 0.5 µM (≈ 1.22 µg/mL)
MIC (Escherichia coli DC2): ≥ 32 µM
MIC (Escherichia coli UB1005): ≥ 32 µM
MIC [26]: 16 µM (≈ 38.9 µg/mL)
SMILES: CSCC[C@H](NC(=O)[C@H](C)NC(=O)[C@H](C)NC(=O)[C@H](C)NC(=O)[C@H](CCCCN)NC(=O)[C@@H](N)CCCCN)C(=O)N[C@@H](C)C(=O)N[C@@H](C)C(=O)N[C@@H](C)C(=O)N[C@@H](C)C(=O)N[C@@H](C)C(=O)N[C@@H](CCSC)C(=O)N[C@@H](C)C(=O)N[C@@H](C)C(=O)N[C@@H](Cc1c[nH]c2ccccc12)C(=O)N[C@@H](C)C(=O)N[C@@H](C)C(=O)N[C@@H](CCSC)C(=O)N[C@@H](C)C(=O)N[C@@H](C)C(=O)N[C@@H](C)C(=O)N[C@@H](CCCCN)C(=O)N[C@@H](CCCCN)C(=O)N[C@@H](CCCCN)C(=O)N[C@@H](CCCCN)C(N)=O [KKAAAMAAAAAMAAWAAMAAAKKKK]

MIC [27]: 1.42 µM (≈ 2 µg/mL)
MIC [11]: 1.42 µM (≈ 2 µg/mL)
MIC [28]: 1.42 µM (≈ 2 µg/mL)
MIC [29]: 2.84 µM (≈ 4 µg/mL)
MIC [5]: 5.67 µM (≈ 7.99 µg/mL)
MIC [30]: 1.42 µM (≈ 2 µg/mL)
MIC [31]: 0.709 µM (≈ 0.999 µg/mL)
MIC [32]: 1.42 µM (≈ 2 µg/mL)
MIC [33]: 5.67 µM (≈ 7.99 µg/mL)
MIC [17]: 1.42 µM (≈ 2 µg/mL)
SMILES: CC(C)C[C@H](NC(=O)[C@H](CC(C)C)NC(=O)[C@H](CCCCN)NC(=O)[C@H](CCCCN)NC(=O)[C@H](CC(C)C)NC(=O)[C@H](CC(C)C)NC(=O)[C@H](CCCCN)NC(=O)[C@H](CCCCN)NC(=O)[C@H](CC(C)C)NC(=O)[C@H](Cc1c[nH]c2ccccc12)NC(=O)[C@@H](N)CCCCN)C(N)=O [KWLKKLLKKLL]

MIC [27]: 1.07 µM (≈ 1.3 µg/mL)
MIC [11]: 4.12 µM (≈ 5 µg/mL)
MIC [28]: 4.12 µM (≈ 5 µg/mL)
MIC [29]: 2.06 µM (≈ 2.5 µg/mL)
MIC [5]: 8.25 µM (≈ 9.99 µg/mL)
MIC [30]: 8.25 µM (≈ 9.99 µg/mL)
MIC [31]: 2.06 µM (≈ 2.5 µg/mL)
MIC [32]: 1.07 µM (≈ 1.3 µg/mL)
MIC [33]: 2.06 µM (≈ 2.5 µg/mL)
MIC [17]: 1.07 µM (≈ 1.3 µg/mL)
SMILES: CC(C)C[C@H](NC(=O)[C@H](CC(C)C)NC(=O)[C@H](Cc1c[nH]c2ccccc12)NC(=O)[C@H](CCCCN)NC(=O)[C@H](CC(C)C)NC(=O)[C@H](CC(C)C)NC(=O)[C@H](Cc1c[nH]c2ccccc12)NC(=O)[C@H](CCCCN)NC(=O)[C@@H](N)CC(C)C)C(N)=O [LKWLLKWLL]
